Measurements published in the supplement of paper PMC11919725.

What was measured:
Jurkat [1] = experiment: cytotoxicity relative to DMSO, 18 h (ratio); higher = less cell death (drugs called cytotoxic fall below 1)
Summary of the method: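 Jurkat or primary CD4+/CD8+ T cells (naive, or activated 48 h with CD3/CD28 Dynabeads) were treated 18 h with compound at 1 nM–10 µM (log10 steps) at 37 °C, 5% CO2. Then 100 µl of suspension went into 96-well plates with IncuCyte Cytotox Dye (250 nM final). Cytotoxicity came from IncuCyte fluorescence imaging (×10, five images per well, hourly over 3 h). Signals were corrected for confluency, then normalised to mean DMSO controls.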

Jurkat [2] = experiment: metabolic activity relative to DMSO, 18 h (ratio); higher = more viable
Summary of the method: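 Jurkat or primary CD4+/CD8+ T cells (naive, or activated 48 h with CD3/CD28 Dynabeads) were treated 18 h with compound at 1 nM–10 µM (log10 steps) at 37 °C, 5% CO2. Then 100 µl of suspension went into 96-well plates with alamarBlue (10% v/v final). After 3.5 h, fluorescence was read on a FluoStar Omega (excitation 544 nm, emission 584 nm). Metabolic activity is normalised to mean DMSO controls.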

Jurkat [3] = experiment: confluency relative to DMSO, 18 h (ratio); higher = more viable
Summary of the method: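 Jurkat cells and primary CD4+/CD8+ T cells, naive or activated with CD3/CD28 Dynabeads for 48 h, were treated with compound (1 nM–10 µM, log10 steps) for 18 h at 37 °C. Following transfer of 100 µl into 96-well plates with IncuCyte Cytotox Dye and alamarBlue, wells were imaged at ×10, five images per well, each hour for 3 h. Confluency, obtained with the IncuCyte Basic Analyzer from phase-contrast images, is normalised to the mean of the control wells.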

Compound | cytotoxicity (Jurkat [1]; 1 nM) | cytotoxicity (Jurkat [1]; 10 nM) | cytotoxicity (Jurkat [1]; 100 nM) | cytotoxicity (Jurkat [1]; 1000 nM) | cytotoxicity (Jurkat [1]; 10000 nM) | metabolic activity (Jurkat [2]; 1 nM) | metabolic activity (Jurkat [2]; 10 nM) | metabolic activity (Jurkat [2]; 100 nM) | metabolic activity (Jurkat [2]; 1000 nM) | metabolic activity (Jurkat [2]; 10000 nM) | confluency (Jurkat [3]; 1 nM) | confluency (Jurkat [3]; 10 nM) | confluency (Jurkat [3]; 100 nM) | confluency (Jurkat [3]; 1000 nM) | confluency (Jurkat [3]; 10000 nM)
COc1ncc(-c2ccc3nccc(-c4ccnnc4)c3c2)cc1NS(=O)(=O)c1ccc(F)cc1F [Omipalisib] | 1.04 | 0.823 | 0.728 | 0.735 | 0.923 | 1.1 | 0.966 | 0.621 | 0.524 | 0.563 | 0.98 | 0.797 | 0.785 | 0.904 | 1.12
Nc1nc2cc(CCC3CC(n4ccc5c(N)ncnc54)C(O)C3O)ccc2cc1Br (stereo not given) [Onametostat] | 0.949 | 0.883 | 0.975 | 0.884 | 0.982 | 1.01 | 0.982 | 1.07 | 0.979 | 0.975 | 0.916 | 0.951 | 0.973 | 0.978 | 0.985
COC1CCC(N2C(=O)CNc3ncc(-c4ccc(C(C)(C)O)nc4)nc32)CC1 (stereo not given) [Onatasertib] | 1.12 | 1.07 | 1.11 | 0.859 | 0.586 | 0.857 | 0.964 | 0.935 | 0.881 | 0.73 | 1.12 | 1.05 | 1.07 | 0.9 | 0.675
O=C(O)C(=O)O.[NH-]C1CCCCC1[NH-].[Pt+2] (stereo not given) [Oxaliplatin] | 0.835 | 0.765 | 1.05 | 1.04 | 1.1 | 0.909 | 0.865 | 0.936 | 0.884 | 0.991 | 0.84 | 0.755 | 1.01 | 0.989 | 0.969
CN(C)CC(=O)Nc1ccc2[nH]c(=O)c3ccccc3c2c1 [PJ34] | 0.966 | 0.947 | 0.963 | 0.932 | 1.17 | 0.99 | 1.03 | 1.04 | 0.955 | 1.12 | 0.971 | 0.933 | 0.94 | 0.99 | 0.968
CC(=O)OC1C(=O)C2(C)C(O)CC3OCC3(OC(C)=O)C2C(OC(=O)c2ccccc2)C2(O)CC(OC(=O)C(O)C(NC(=O)c3ccccc3)c3ccccc3)C(C)=C1C2(C)C (stereo not given) [Paclitaxel] | 1.16 | 0.953 | 0.883 | 0.854 | 0.797 | 1.05 | 0.568 | 0.576 | 0.534 | 0.744 | 1 | 0.989 | 0.964 | 0.939 | 0.81
CC(=O)c1c(C)c2cnc(Nc3ccc(N4CCNCC4)cn3)nc2n(C2CCCC2)c1=O [Palbociclib] | 0.851 | 0.93 | 0.95 | 1.03 | 0.793 | 0.877 | 0.988 | 0.96 | 0.995 | 0.88 | 0.829 | 0.902 | 0.974 | 1.04 | 0.813
Nc1nc2[nH]cc(CCc3ccc(C(=O)NC(CCC(=O)O)C(=O)O)cc3)c2c(=O)[nH]1 (stereo not given) [Pemetrexed] | 0.992 | 0.997 | 0.837 | 0.821 | 0.75 | 1.02 | 1.11 | 1.06 | 1.09 | 0.853 | 1 | 0.962 | 0.845 | 0.839 | 0.835
CC(=O)N1CCC(Nc2cc(C(=O)NCC(O)CN3CCc4ccccc4C3)ncn2)CC1 (stereo not given) [Pemrametostat] | 1.07 | 1.09 | 1.06 | 1.05 | 1.05 | 0.952 | 0.904 | 0.931 | 0.95 | 1.2 | 1.05 | 1.06 | 1.01 | 1.03 | 0.947
COc1ccc(Cl)c(Nc2nc3ccccc3nc2NS(=O)(=O)c2cccc(NC(=O)C(C)(C)N)c2)c1 [Pilaralisib] | 1.06 | 1.11 | 1.1 | 0.959 | 0.942 | 1.02 | 1.03 | 1.03 | 0.939 | 0.877 | 0.978 | 1.01 | 1.01 | 0.994 | 0.976
CC(C)N(CC1OC(n2cnc3c(N)ncnc32)C(O)C1O)C1CC(CCc2nc3ccc(C(C)(C)C)cc3[nH]2)C1 (stereo not given) [Pinometostat] | 0.982 | 1.06 | 1.25 | 1.01 | 1 | 0.998 | 1.05 | 1.12 | 0.858 | 0.958 | 0.929 | 0.934 | 1.11 | 1.02 | 0.941
